Source: PubChem BioAssay AID1963428 (Molecular Pharmacology Branch, DTP, NCI, 2024)

System: 171881-019-R-J1-PDC complex spheroid growth, % test/control
Assay: Anticancer human tumor 171881-019-R-J1-PDC patient-derived invasive breast carcinoma cell line growth inhibition [Asc]
Conditions: for IC50: curve of first compound; for viability, T/C: stronger effect = lower value
How it was run: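 Complex spheroids combining tumor cells with HUVEC endothelial cells and human MSCs, at 37 degrees C, 5% CO2; agents tested alone or combined, half-log dilutions from at or near clinical Cmax, or 10 microM if Cmax unknown.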

[1] = second compound 0.1 µM, first compound 0.00316 µM
[2] = second compound 0.1 µM, first compound 0.01 µM
[3] = second compound 0.1 µM, first compound 0.0316 µM
[4] = second compound 0.1 µM, first compound 0.1 µM
[5] = second compound 0.1 µM, first compound 0.316 µM
[6] = second compound 0.1 µM, first compound 1 µM
[7] = second compound 0.316 µM, first compound 0.00316 µM
[8] = second compound 0.316 µM, first compound 0.01 µM
[9] = second compound 0.316 µM, first compound 0.0316 µM
[10] = second compound 0.316 µM, first compound 0.1 µM
[11] = second compound 0.316 µM, first compound 0.316 µM
[12] = second compound 0.316 µM, first compound 1 µM
[13] = second compound 1 µM, first compound 0.00316 µM
[14] = second compound 1 µM, first compound 0.01 µM
[15] = second compound 1 µM, first compound 0.0316 µM
[16] = second compound 1 µM, first compound 0.1 µM
[17] = second compound 1 µM, first compound 0.316 µM
[18] = second compound 1 µM, first compound 1 µM
[19] = second compound 3.16 µM, first compound 0.00316 µM
[20] = second compound 3.16 µM, first compound 0.01 µM
[21] = second compound 3.16 µM, first compound 0.0316 µM
[22] = second compound 3.16 µM, first compound 0.1 µM
[23] = second compound 3.16 µM, first compound 0.316 µM
[24] = second compound 3.16 µM, first compound 1 µM
[25] = second compound 10 µM, first compound 0.00316 µM
[26] = second compound 10 µM, first compound 0.01 µM
[27] = second compound 10 µM, first compound 0.0316 µM
[28] = second compound 10 µM, first compound 0.1 µM
[29] = second compound 10 µM, first compound 0.316 µM
[30] = second compound 10 µM, first compound 1 µM
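Throughout, for viability, T/C: spheroids exposed to compounds for 7 days.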

SMILES	IC50 (second compound 0.1 µM) [nM]	IC50 (second compound 0.316 µM) [nM]	IC50 (second compound 1 µM) [nM]	IC50 (second compound 3.16 µM) [nM]	IC50 (second compound 10 µM) [nM]	viability, T/C [1] [%]	viability, T/C [2] [%]	viability, T/C [3] [%]	viability, T/C [4] [%]	viability, T/C [5] [%]	viability, T/C [6] [%]	viability, T/C [7] [%]	viability, T/C [9] [%]	viability, T/C [10] [%]	viability, T/C [15] [%]	viability, T/C [16] [%]	viability, T/C [21] [%]	viability, T/C [22] [%]	viability, T/C [27] [%]	viability, T/C [28] [%]	other results
CCN1CCN(Cc2ccc(Nc3ncc(F)c(-c4cc(F)c5nc(C)n(C(C)C)c5c4)n3)nc2)CC1 + Cc1c(S(C)(=O)=O)c(-c2cc(F)cc(N3CCN(c4ccc(NS(=O)(=O)c5ccc(NC(CCN6CCC(C(=O)OCCCP(=O)(O)O)CC6)CSc6ccccc6)c(S(=O)(=O)C(F)(F)F)c5)cc4)CC3)c2)c(-c2ccc(Cl)cc2)n1C(C)C	> 1000	> 1000	> 1000	> 1000	> 1000	105	118	119	111	118	146	142	149	139	157	172	189	184	213	192	viability, T/C [8]: 145%; viability, T/C [11]: 178%; viability, T/C [12]: 188%; viability, T/C [13]: 125%; viability, T/C [14]: 149%; viability, T/C [17]: 188%; viability, T/C [18]: 200%; viability, T/C [19]: 191%; viability, T/C [20]: 190%; viability, T/C [23]: 188%; viability, T/C [24]: 185%; viability, T/C [25]: 199%; viability, T/C [26]: 215%; viability, T/C [29]: 187%; viability, T/C [30]: 166%
Cn1ncnc1[C@H]1c2n[nH]c(=O)c3cc(F)cc(c23)N[C@@H]1c1ccc(F)cc1 + Cc1c(S(C)(=O)=O)c(-c2cc(F)cc(N3CCN(c4ccc(NS(=O)(=O)c5ccc(NC(CCN6CCC(C(=O)OCCCP(=O)(O)O)CC6)CSc6ccccc6)c(S(=O)(=O)C(F)(F)F)c5)cc4)CC3)c2)c(-c2ccc(Cl)cc2)n1C(C)C	> 100	> 100	> 100	> 100	> 100	103	115	108	100			107	129	129	143	192	192	173	192	181	viability, T/C (second compound 0.1 µM, first compound 0.000316 µM): 86.8%; viability, T/C (second compound 0.1 µM, first compound 0.001 µM): 108%; viability, T/C (second compound 0.316 µM, first compound 0.000316 µM): 111%; viability, T/C (second compound 0.316 µM, first compound 0.001 µM): 130%; viability, T/C [8]: 120%; viability, T/C (second compound 1 µM, first compound 0.000316 µM): 136%; viability, T/C (second compound 1 µM, first compound 0.001 µM): 145%; viability, T/C [13]: 123%; viability, T/C [14]: 159%; viability, T/C (second compound 3.16 µM, first compound 0.000316 µM): 168%; viability, T/C (second compound 3.16 µM, first compound 0.001 µM): 155%; viability, T/C [19]: 186%; viability, T/C [20]: 178%; viability, T/C (second compound 10 µM, first compound 0.000316 µM): 210%; viability, T/C (second compound 10 µM, first compound 0.001 µM): 203%; viability, T/C [25]: 214%; viability, T/C [26]: 208%
O=C(c1cc(Cc2n[nH]c(=O)c3ccccc23)ccc1F)N1CCN(C(=O)C2CC2)CC1 + Cc1c(S(C)(=O)=O)c(-c2cc(F)cc(N3CCN(c4ccc(NS(=O)(=O)c5ccc(NC(CCN6CCC(C(=O)OCCCP(=O)(O)O)CC6)CSc6ccccc6)c(S(=O)(=O)C(F)(F)F)c5)cc4)CC3)c2)c(-c2ccc(Cl)cc2)n1C(C)C	> 10000	> 10000	> 10000	> 10000	> 10000			106	102	103	124		136	125	132	136	158	200	212	208	viability, T/C (second compound 0.1 µM, first compound 3.16 µM): 102%; viability, T/C (second compound 0.1 µM, first compound 10 µM): 111%; viability, T/C [11]: 134%; viability, T/C [12]: 125%; viability, T/C (second compound 0.316 µM, first compound 3.16 µM): 127%; viability, T/C (second compound 0.316 µM, first compound 10 µM): 134%; viability, T/C [17]: 143%; viability, T/C [18]: 168%; viability, T/C (second compound 1 µM, first compound 3.16 µM): 169%; viability, T/C (second compound 1 µM, first compound 10 µM): 180%; viability, T/C [23]: 193%; viability, T/C [24]: 164%; viability, T/C (second compound 3.16 µM, first compound 3.16 µM): 197%; viability, T/C (second compound 3.16 µM, first compound 10 µM): 184%; viability, T/C [29]: 228%; viability, T/C [30]: 227%; viability, T/C (second compound 10 µM, first compound 3.16 µM): 209%; viability, T/C (second compound 10 µM, first compound 10 µM): 175%
O=C(c1ccc(F)c(F)c1Nc1ccc(I)cc1F)N1CC(O)([C@@H]2CCCCN2)C1 + Cc1c(S(C)(=O)=O)c(-c2cc(F)cc(N3CCN(c4ccc(NS(=O)(=O)c5ccc(NC(CCN6CCC(C(=O)OCCCP(=O)(O)O)CC6)CSc6ccccc6)c(S(=O)(=O)C(F)(F)F)c5)cc4)CC3)c2)c(-c2ccc(Cl)cc2)n1C(C)C	207	164	125	87.3	106	98.9	110	222	97.6	25.8	18.8	109	186	75.9	158	59.2	115	44.8	118	54.9	viability, T/C [8]: 194%; viability, T/C [11]: 18.7%; viability, T/C [12]: 12.3%; viability, T/C [13]: 136%; viability, T/C [14]: 193%; viability, T/C [17]: 13.7%; viability, T/C [18]: 6.11%; viability, T/C [19]: 156%; viability, T/C [20]: 182%; viability, T/C [23]: 8.8%; viability, T/C [24]: 3.61%; viability, T/C [25]: 175%; viability, T/C [26]: 174%; viability, T/C [29]: 12%; viability, T/C [30]: 3.48%
